Several values for one entry are separate records, joined by “and”; a condition that tells them apart may be missing. Equal entries are not always repeated.
Key:
[1] = Oral dose PK of NPT-2042 in rat; assay type: in vivo
Procedure: Assays were performed to determine absolute bioavailability of NPT2042 in two species: dog and rat. The calculation of absolute bioavailability depends on four inputs: the areas under the curves (AUC) for oral and IV, and the oral and IV doses.
Testing was conducted to determine AUCs for an oral dose in rat.

[2] = IV bolus PK of NPT-2042 in rat; assay type: in vivo; conditions: IV bolus 10 mg/kg
[3] = plasma, NPT-2042, rat, oral 30 mg/kg
[4] = rat, oral, dose column 30 mg/kg, individual rats and Mean (N=3)
[5] = rat, oral, dose column 30 mg/kg, individual rats and Mean (N=3), mean
[6] = rat, individual rats and Mean (N=3), 10 mg/kg
[7] = rat, individual rats and Mean (N=3), 10 mg/kg, mean

CCCCNc1cc(C(=O)N(Cc2ccccc2)Cc2ccccc2)cc(S(N)(=O)=O)c1Oc1ccccc1 [NPT-2042, N,N-Dibenzyl 3-Aminosulfonyl-5-butylamino-4-phenoxybenzamide]
AUC(0-inf) [1, 3]: 35.4 ng·h/mL | Cmax [1, 3]: 4.56 ng/mL | Tmax [1, 3]: 4 h | concentration at 0.5 h ([1]; rat, in vivo, oral, 30 mg/kg, rat, oral, dose column 30 mg/kg, individual rats and Mean (N=3), read-out: NPT-2042 concentration, Time 0.50 h): 2.01 ng/mL | concentration at 2 h ([1]; rat, in vivo, oral, 30 mg/kg, rat, oral, dose column 30 mg/kg, individual rats and Mean (N=3), read-out: NPT-2042 concentration, Time 2.00 h): 4 ng/mL | concentration at 4 h ([1]; rat, in vivo, oral, 30 mg/kg, rat, oral, dose column 30 mg/kg, individual rats and Mean (N=3), read-out: NPT-2042 concentration, Time 4.00 h): 3.52 ng/mL | concentration at 6 h ([1]; rat, in vivo, oral, 30 mg/kg, rat, oral, dose column 30 mg/kg, individual rats and Mean (N=3), read-out: NPT-2042 concentration, Time 6.00 h): 3.99 ng/mL | concentration at 12 h ([1]; rat, in vivo, oral, 30 mg/kg, rat, oral, dose column 30 mg/kg, individual rats and Mean (N=3), read-out: NPT-2042 concentration, Time 12.00 h): 0.78 ng/mL | Fabs (ratio), absolute bioavailability ([1]; rat, oral 30 mg/kg vs IV 10 mg/kg): 0.0034 | NPT-2042 concentration, Time 0.50 h [1, 4]: 1.29 ng/mL and 1.67 ng/mL | NPT-2042 concentration, Time 1.00 h [1, 4]: 2.14 ng/mL and 4.70 ng/mL and 2.45 ng/mL | NPT-2042 concentration, Time 2.00 h [1, 4]: 2.88 ng/mL and 3.60 ng/mL | NPT-2042 concentration, Time 4.00 h [1, 4]: 5.42 ng/mL and 4.73 ng/mL | NPT-2042 concentration, Time 6.00 h [1, 4]: 2.49 ng/mL and 4.15 ng/mL | NPT-2042 concentration, Time 8.00 h [1, 4]: 1.57 ng/mL and 2.57 ng/mL and 3.20 ng/mL | NPT-2042 concentration, Time 12.00 h [1, 4]: 0.715 ng/mL and 0.731 ng/mL | NPT-2042 concentration, Time 0.50 h [1, 5]: 1.66 ng/mL | NPT-2042 concentration, Time 1.00 h [1, 5]: 3.10 ng/mL | NPT-2042 concentration, Time 2.00 h [1, 5]: 3.49 ng/mL | NPT-2042 concentration, Time 4.00 h [1, 5]: 4.56 ng/mL | NPT-2042 concentration, Time 6.00 h [1, 5]: 3.54 ng/mL | NPT-2042 concentration, Time 8.00 h [1, 5]: 2.45 ng/mL | NPT-2042 concentration, Time 12.00 h [1, 5]: 0.742 ng/mL | clearance ([2]; in vivo, NPT-2042, rat): 48 mL/min/kg | Vd ([2]; in vivo, NPT-2042, rat, read-out: Vz): 10.8 L/kg | half-life ([2]; in vivo, NPT-2042, rat, read-out: t½ (converted)): 2.61 h | AUC(0-inf) ([2]; plasma, NPT-2042, rat): 3470 ng·h/mL | Cmax ([2]; plasma, NPT-2042, rat): 2510 ng/mL | Tmax ([2]; plasma, NPT-2042, rat): 4.8 min | NPT-2042 concentration, Time 0.08 h [2, 6]: 3080 ng/mL and 2720 ng/mL | NPT-2042 concentration, Time 1.00 h [2, 6]: 250 ng/mL and 1190 ng/mL and 924 ng/mL | NPT-2042 concentration, Time 2.00 h [2, 6]: 477 ng/mL and 421 ng/mL | NPT-2042 concentration, Time 4.00 h [2, 6]: 205 ng/mL and 218 ng/mL | NPT-2042 concentration, Time 6.00 h [2, 6]: 203 ng/mL and 145 ng/mL and 60.8 ng/mL | NPT-2042 concentration, Time 8.00 h [2, 6]: 20.0 ng/mL and 33.1 ng/mL and 87.3 ng/mL | NPT-2042 concentration, Time 12.00 h [2, 6]: 60.8 ng/mL and 18.6 ng/mL and 4.67 ng/mL | NPT-2042 concentration, Time 24.00 h [2, 6]: 0.257 ng/mL and 0.582 ng/mL and 1.95 ng/mL | NPT-2042 concentration, Time 0.08 h [2, 7]: 2510 ng/mL | NPT-2042 concentration, Time 1.00 h [2, 7]: 788 ng/mL | NPT-2042 concentration, Time 2.00 h [2, 7]: 405 ng/mL | NPT-2042 concentration, Time 4.00 h [2, 7]: 196 ng/mL | NPT-2042 concentration, Time 6.00 h [2, 7]: 136 ng/mL | NPT-2042 concentration, Time 8.00 h [2, 7]: 46.8 ng/mL | NPT-2042 concentration, Time 12.00 h [2, 7]: 28.0 ng/mL | NPT-2042 concentration, Time 24.00 h [2, 7]: 0.930 ng/mL | concentration at 0.08 h ([2]; rat, plasma, iv, 10 mg/kg, rat, individual rats and Mean (N=3), read-out: NPT-2042 concentration, Time 0.08 h): 1720 ng/mL | concentration at 2 h ([2]; rat, plasma, iv, 10 mg/kg, rat, individual rats and Mean (N=3), read-out: NPT-2042 concentration, Time 2.00 h): 317 ng/mL | concentration at 4 h ([2]; rat, plasma, iv, 10 mg/kg, rat, individual rats and Mean (N=3), read-out: NPT-2042 concentration, Time 4.00 h): 165 ng/mL

Reference: patent US20230293469A1, “NOVEL PHARMACEUTICAL COMPOSITIONS” (NEUROPRO THERAPEUTICS, INC., priority 2020, published 2023)
